What all share (type): in vivo, SD (Sprague Dawley) rats
Series [1] deals with benign prostatic hyperplasia rats treated with testosterone propionate. Nature of the series: prostate weight and prostate index in benign prostatic hyperplasia rats treated with testosterone propionate. To be noted: finasteride group. The procedure: : modeling, particularly comprising steps of: […]: respectively weighing six groups of SD rats; […] The drug is administrated by gavage once a day; after administrating for consecutive 6 days, administration is stopped for one day; and an administration cycle is 4 week. Respectively weighing SD rats of six groups two hours after last administration and after fasting for 12 hours; killing the SD rats, separating the prostate of the SD rats through the tweezers, and weighing the prostate;

Series [2] has as its system prostate tissue of benign prostatic hyperplasia rats. Briefly: prostate tissue appearance and HE stain morphology in benign prostatic hyperplasia rats. To be noted: finasteride group, 0.28 mg/kg. An excerpt: The drug is administrated by gavage once a day; after administrating for consecutive 6 days, administration is stopped for one day; and an administration cycle is 4 week. killing the SD rats, separating the prostate of the SD rats through the tweezers, and weighing the prostate; […]

The subject of series [3] is SRC-1 (steroid receptor coactivator-1). Nature of the series: immunohistochemical measurement of SRC-1 in the prostate. As to conditions: finasteride group, 0.28 mg/kg. The procedure: S3023: according to a dose of 4 mg/kg, which is calculated through equivalent conversion according to the body surface areas of humans and animals, hypodermically injecting the testosterone propionate injection to each SD rat for consecutive 30 days, and injecting normal saline of same volume to the SD rats of normal group, so as to finish modeling.
The high-dose group adopts an administration dose of 10 mg/kg (which is calculated through equivalent conversion according to the body surface areas of humans and animals; when the weight of the SD rat is 1 kg, 10 mg of the sterol composition in the pumpkin seed oil prepared through the example 1 is administrated), the medium-dose group adopts an administration dose of 3.3 mg/kg, and the low-dose group adopts an administration dose of 1.1 mg/kg, which respectively correspond to 20 times, 6.66 times, and 2.22 times the clinical dose. Before drug administration, suspensions of 4.5 mg/mL, 1.5 mg/mL, and 0.5 mg/mL are respectively prepared with the corn oil. […] The drug is administrated by gavage once a day; after administrating for consecutive 6 days, administration is stopped for one day; and an administration cycle is 4 week. […]

Series [4] can be described thus: rat weight after 4 week administration in benign prostatic hyperplasia rats. As to conditions: finasteride group, 0.28 mg/kg by gavage once a day.
Another series deals with 5α-reductase. Nature of the series: RT-qPCR genetic expression of 5α-reductase in the prostate. To be noted: finasteride group, 0.28 mg/kg, compared with the model group. A general note: In qPCR the cycle at which signal appears reflects the starting amount.

Each structure is given as a SMILES string.

Turning to `CC(C)(C)NC(=O)[C@H]1CC[C@H]2[C@@H]3CC[C@H]4NC(=O)C=C[C@]4(C)[C@H]3CC[C@]12C` [Finasteride, finasteride], the “decrease of prostate weight compared with the model group” value in series [1] (0.28 mg/kg) stood at 19.1%. The same molecule gave a Prostate weight in series [1] (0.28 mg/kg by gavage once a day, 4 week) of 868.4 ± 188.3 mg. Besides, in series [2], the “HE stain morphology of the prostate tissue (FIG. 3)” value was “part of the multiple-layer epithelial cells in the prostate tissue recover to the single-layer epithelial cells” and the “volume of the prostate tissue compared with the model group (FIG. 2)” value is on record as “obviously decreased”. Moreover, the “genetic expression of SRC-1, immunohistochemical method (FIG. 4)” value in series [3] is “obviously decreased”. Further, the Rat weight in series [4] came to 439.2 ± 32.7 g. For the same molecule, in the series on 5α-reductase, the “genetic expression quantity of 5α-reductase, RT-qPCR (FIG. 5)” value is “obviously decreased”.

For the origin of these results see patent US11065263B2, “Sterol composition in pumpkin seed oil and application thereof, and drug for treating benign prostatic hyperplasia” (Hunan Zhongkewentai Bio-tech co.Ltd, priority 2019, dated 2021).
